Results on one molecule are retold here after BindingDB's records for doi:10.1021/acs.jnatprod.9b00140 (University of Illinois At Chicago, 2019).

pIC50: −log10 of the molar value.

In the assay the target is Transcription factor p65 (Human, UniProt Q04206). Nature of the assay: Inhibition of TNF alpha stimulated NF-KappaB p65 in human HeLa nuclear extract assessed as decrease in NF-KappaB translocation to nucleus measured after 5 hrs by ELISA. (In an ELISA, binding on a coated surface is turned into a signal by an enzyme label.)
Sequence of Transcription factor p65 (Q04206 whole entry): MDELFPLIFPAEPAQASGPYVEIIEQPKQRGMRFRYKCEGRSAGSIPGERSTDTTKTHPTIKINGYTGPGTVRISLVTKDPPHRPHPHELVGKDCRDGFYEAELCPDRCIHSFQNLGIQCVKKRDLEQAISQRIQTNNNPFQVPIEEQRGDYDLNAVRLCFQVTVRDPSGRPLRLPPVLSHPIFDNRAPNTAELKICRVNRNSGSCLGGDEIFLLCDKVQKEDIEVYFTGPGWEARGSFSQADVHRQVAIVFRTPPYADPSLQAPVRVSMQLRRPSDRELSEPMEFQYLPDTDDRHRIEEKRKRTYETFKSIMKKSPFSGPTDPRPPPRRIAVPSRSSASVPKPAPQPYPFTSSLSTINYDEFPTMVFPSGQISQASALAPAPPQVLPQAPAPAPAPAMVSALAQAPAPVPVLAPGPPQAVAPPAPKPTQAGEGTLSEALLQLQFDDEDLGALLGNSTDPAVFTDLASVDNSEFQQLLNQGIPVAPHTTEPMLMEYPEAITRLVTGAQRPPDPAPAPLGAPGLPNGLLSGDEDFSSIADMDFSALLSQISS

One may read the pIC50 as the negative decadic logarithm of the IC50, by convention in mol/L. With `C[C@H]1O[C@@H](O[C@H]2CC[C@]3(C)[C@H]4CC[C@]5(C)[C@@H](C6=CC(=O)OC6)CC[C@]5(O)[C@@H]4CC[C@]3(O)C2)C[C@H](O)[C@@H]1O[C@@H]1O[C@H](CO)[C@@H](O)[C@H](O)[C@H]1O`, the pIC50 is 5.37.
